Assays:
[1] = tested on: ischemic brain, damaged neuronal cells; test: DDC staining of ischemic damage following transient MCA occlusion; assay type: in vivo, rats; details: 2 h MCA occlusion and reperfusion, DDC at 22 hours
Protocol: A. Administration of DDC in-vivo: Injection of 200 μl of DDC intravenously. Following 1-2 hours, animal is sacrificed, and the desired organ is placed in a test tube or on a small plate, suitable for liquid nitrogen freezing. The plate is then covered with an aluminum foil, and transferred to liquid nitrogen. Following 5-30 minutes the specimen is being frozen to −80° C. and kept at −80° C. for at least 16 hr. B. Analysis of the Specimen: • a. Whole organ imaging Ex-vivo whole organ fluorescence imaging may be carried out on freshly excised specimen, that can be analyzed under a stereomicroscope (such as Leica MZ FL III, Leica Switzerland). […] Emitted fluorescence can be imaged using appropriate camera and software, such as a Leica DC 300F Distal camera and images can be processed and analyzed by Leica QWin Lite software. • b. […] Analysis of the tissue sections can be performed using a fluorescence microscope with a UV filter characterized by excitation at 360-370 nm (band pass) and emission at 420 nm (barrier filter) In case that staining of the examined tissue is desired, the following procedures can be applied:
Transient focal ischemia was induced by middle cerebral artery (MCA) occlusion and reperfusion. […] At 22 hours from MCA occlusion, neurological score was assessed and DDC was injected I.V. (as detailed in DDC protocols II-A) for a successive 2 h before sacrificing the animals. […]

[2] = tested on: injured renal tissues (outer medulla); test: Radiocontrast-induced distal tubular necrosis model, detection by DDC; assay type: in vivo, rat; details: 24 h after radiocontrast insult, DDC i.v. 2 hours
Protocol: A. Administration of DDC in-vivo: Injection of 200 μl of DDC intravenously. Following 1-2 hours, animal is sacrificed, and the desired organ is placed in a test tube or on a small plate, suitable for liquid nitrogen freezing. The plate is then covered with an aluminum foil, and transferred to liquid nitrogen. Following 5-30 minutes the specimen is being frozen to −80° C. and kept at −80° C. for at least 16 hr. B. Analysis of the Specimen: • a. Whole organ imaging Ex-vivo whole organ fluorescence imaging may be carried out on freshly excised specimen, that can be analyzed under a stereomicroscope (such as Leica MZ FL III, Leica Switzerland). DDC may be visualized using 360cx and >420cm nm filter set. Emitted fluorescence can be imaged using appropriate camera and software, such as a Leica DC 300F Distal camera and images can be processed and analyzed by Leica QWin Lite software. • b. […] Analysis of the tissue sections can be performed using a fluorescence microscope with a UV filter characterized by excitation at 360-370 nm (band pass) and emission at 420 nm (barrier filter) In case that staining of the examined tissue is desired, the following procedures can be applied:
The selectivity of DDC uptake in injured renal tissues was evaluated in this rat model, characterized by selective medullary hypoxic tubular damage. […]

[3] = tested on: C26 colon carcinoma cells; test: Staining by DDC of C26 colon carcinoma cells treated with BiCNU, fluorescent microscopy; assay type: cell-based
Protocol: For microscopic analysis the concentration of cells should be within 1-2×10^7/ml. […] If fixation is needed, it should be performed after DDC staining. • 1. Adjusting the cells to 1-2×10^7/ml in buffer. • 2. Transferring 96 μl from the cell suspension to an eppendorf and staining the cells by adding 4 μl from the DDC solution. Incubating for 10-40 minutes at RT protected from light. • 3. A double labeling could be conducted with PI, if desired. In such a case, 1 μl is added from the PI solution. • 4, Placing the cell suspension on a glass slide. Covering the cells with a glass coverslip. Alternatively, for analyzing adherent cells, cells may grow directly on coverslip. Staining the cells by incubation with DDC (4 μl of DDC/96 μl buffer reaction) or 10-40 minutes and PI (1 μl). Covering the slide with a coverslip and visualizing the cells. […] Observing the cells under fluorescent or confocal microscope equipped with the appropriate UV filter (excitation at 360-370 nm, band pass, and emission at 420 nm, barrier filter. Using a Triple filter (Hoechst/FITC/Texas Red) allows concomitant observation of both DDC and PI. Quantitative Assay for DDC Accumulation using Fluorescene Spectroscopy
26 colon carcinoma cells were treated with 0.5 mM BiCNU for 2 hr and stained with DDC (as detailed in the DDC protocols IIIC). Cells were analyzed by fluorescent microscope under a UV filter.

[4] = tested on: Jurkat cells (T-cell leukemia, human); test: Binding of DDC and PI to Jurkat cells treated with anti-Fas antibody, FACS; assay type: cell-based; details: anti-Fas antibody 0.1 μg/ml for 180 minutes
Protocol: a. Non Adherent Cells • 1. Inducing cells to undergo apoptosis. A negative control should be prepared by incubating cells in the absence of apoptosis induction agent. • 2. Washing the cells and adjusting the number of cells to 1×10^7/ml in PBS. • 3. Transferring 30 μl from the cell suspension to a suitable test tube for FACS analysis. • 4. Adding 260 μl of PBS and 5 μl of DDC to the tube and incubating for 15 minutes at room temperature (RT), protected from light. • 5. Adding 5 μl of Propidium Iodide (PI) and perform FACS analysis.
Analyzing DDC accumulation by flow cytometry using FACS apparatus that includes a UV laser. For DDC analysis: the UV detector excitation is at 356 nm and the emission is at 530 nm with a band pass of […]. […] The population should be separated into three groups: live cells will show a low level of fluorescence (background), apoptotic cells will show higher UV fluorescence and necrotic cells will show both red and higher UV fluorescence.
Jurkat cells (T-cell leukemia, human) were treated with anti-Fas antibody (0.1 μg/ml) for 180 minutes, Following incubation the cells were washed and stained with DDC (as detailed in DDC protocols, IIIA). […] Following incubation with anti-Fas antibody, most of the cells shifted to the lower right section (AII, EA) of higher fluorescence value, indicating increased staining with DDC. […]

CN(C)c1cccc2c(S(=O)(=O)NC(CSSCC(NS(=O)(=O)c3cccc4c(N(C)C)cccc34)C(=O)O)C(=O)O)cccc12 (stereo not drawn) [DDC]
DDC staining around the ischemic core and in the non-damaged contra-lateral hemisphere [1]: No staining was detected | DDC staining of the ischemic core ([1]; ex-vivo coronal section): high intensity staining | DDC distribution pattern versus morphological findings in the contralateral kidney [2]: closely followed the characteristic striped pattern | stained cells in culture ([3]; 0.5 mM BiCNU for 2 hr): marked increase in the number of the stained cells | stained cells in culture ([3]; control culture): small percentage of stained cells | fluorescence (DDC accumulation) of treated versus control cells [4]: marked shift of fluorescence

— patent US7510825B2, “Kits and methods for detection of apoptotic cells” (NST NeuroSurvival Technologies Ltd, priority 2000, dated 2009)
